From patent US20240327375A1, “SUBSTITUTED HETEROBICYCLIC DERIVATIVES AS NEGATIVE ALLOSTERIC MODULATORS OF MGLU7 RECEPTOR” (priority 2021, published 2024)

Molecular target: T1, human mGlu7 (Homo sapiens, UniProt Q14831)
T1 construct: expressed in transfected cells
Experiment: mGlu7 assay on HEK-expressing human mGlu7: fluorescent cell-based Ca2+ mobilization (FLIPR384), inhibition of EC80 L-AP4 response
Conditions: HEK-293 cells expressing hmGlu7, EC80 L-AP4 stimulation; mean of at least three independent experiments in duplicate; read-out: Ca^2+ Flux (mean IC50)
Excerpt: mGlu7 Assay on HEK-Expressing Human mGlu7
The cDNA encoding the human metabotropic glutamate 7 receptor (hmGlu7), (accession number NM_181874.2, NCBI Nucleotide database browser), was subcloned into an expression vector containing also the hygromycin resistance gene. In parallel, the cDNA encoding a G protein allowing redirection of the activation signal to intracellular calcium flux was subcloned into a different expression vector containing also the Puromycin resistance gene. Transfection of both these vectors into HEK293 cells with PolyFect reagent (Qiagen) according to supplier's protocol, and hygromycin and puromycin treatment allowed selection of antibiotic resistant cells which had integrated stably one or more copies of the plasmids. Positive cellular clones expressing hmGlu7 were identified in a functional assay measuring changes in calcium fluxes in response to glutamate and L-AP4 or known mGlu7 orthosteric antagonists.
HEK-293 cells expressing hmGlu7 were maintained in media containing DMEM, Fetal Bovine Serum (10%), Glutamax™ (2 mM), penicillin (100 units/mL), streptomycin (100 μg/mL), geneticin (100 μg/mL) and hygromycin-B (40 μg/mL) and puromycin (1 μg/mL) at 37° C. with 5% CO2 in a humidified atmosphere.
Fluorescent Cell Based- Ca^+ Mobilization Assay Human mGlu7 HEK-293 cells were plated out 24 hours prior to a fluorescent cell-based calcium mobilization assay using FLIPR^384 assay (Molecular Device, Sunnyvale, CA, USA) in black-walled, clear-bottomed, poly-L-ornithine-coated 384-well plates at a density of 25,000 cells/well in a glutamine/glutamate free DMEM medium containing fetal bovine serum (10%), penicillin (100 units/mL), streptomycin (100 μg/mL) and doxycyline (1 μg/ml) at 37° C. with 5% CO2 in a humidified atmosphere.
On the day of the assay, the medium was aspirated and the cells were loaded with a 3 μM solution of Fluo4-AM (LuBioScience, Lucerne, Switzerland) in 0.03% pluronic acid. After 1 hour at 37° C./5% CO2, the non incorporated dye was removed by washing cell plate with the assay buffer. All assays were performed in a pH 7.4 buffered-solution containing 20 mM HEPES, 143 mM NaCl, 6 mM KCl, 1 mM MgSO4, 1 mM CaCl2, 0.125 mM sulfinpyrazone and 0.1% glucose.
After 10 s of basal fluorescence recording, various concentrations of the compounds of the invention were added to the cells. Changes in fluorescence levels were first monitored for 180 s in order to detect any agonist activity of the compounds. Then the cells were stimulated by an EC80 L-AP4 concentration for an additional 110 s in order to measure inhibiting activities of the compounds of the invention. EC80 L-AP4 concentration is the concentration giving 80% of the maximal glutamate response.
The concentration-response curves of L-AP4 or representative compounds of the present invention were generated using the Prism GraphPad software (Graph Pad Inc, San Diego, USA). The curves were fitted to a four-parameter logistic equation: […]
allowing determination of IC50 values.
The Table 3 below represents the mean IC50 obtained from at least three independent experiments of selected molecules performed in duplicate.

T1 sequence (Q14831 35-922 isoform Q14831-2 limits assumed): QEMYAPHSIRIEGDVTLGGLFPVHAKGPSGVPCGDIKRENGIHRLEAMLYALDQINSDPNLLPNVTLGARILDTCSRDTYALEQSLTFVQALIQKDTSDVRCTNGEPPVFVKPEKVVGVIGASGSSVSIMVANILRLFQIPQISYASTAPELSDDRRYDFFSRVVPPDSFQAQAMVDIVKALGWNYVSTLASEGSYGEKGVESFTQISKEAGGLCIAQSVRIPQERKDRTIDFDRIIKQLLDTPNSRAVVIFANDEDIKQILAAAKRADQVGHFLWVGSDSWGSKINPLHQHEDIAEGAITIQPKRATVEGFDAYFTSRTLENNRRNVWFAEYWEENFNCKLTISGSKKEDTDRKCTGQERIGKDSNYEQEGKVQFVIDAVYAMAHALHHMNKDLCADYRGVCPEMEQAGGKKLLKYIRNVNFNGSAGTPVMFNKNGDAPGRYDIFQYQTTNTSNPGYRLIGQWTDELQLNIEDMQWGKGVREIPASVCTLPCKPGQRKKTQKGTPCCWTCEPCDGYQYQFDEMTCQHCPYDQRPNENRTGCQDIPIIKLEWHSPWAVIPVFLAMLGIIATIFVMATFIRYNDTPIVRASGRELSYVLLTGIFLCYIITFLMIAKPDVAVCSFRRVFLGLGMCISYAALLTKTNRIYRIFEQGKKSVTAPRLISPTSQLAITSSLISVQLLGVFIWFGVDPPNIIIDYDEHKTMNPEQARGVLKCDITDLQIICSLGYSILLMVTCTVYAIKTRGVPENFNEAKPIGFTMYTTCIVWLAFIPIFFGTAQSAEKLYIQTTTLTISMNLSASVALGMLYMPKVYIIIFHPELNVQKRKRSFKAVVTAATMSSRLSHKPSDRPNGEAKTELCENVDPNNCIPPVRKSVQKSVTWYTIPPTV

| Compound | IC50 [nM] |
| --- | --- |
| O=c1c2ccc(-c3cccc(N4CCC4)c3)cc2cnn1Cc1ccccc1 [1-20] | 100 to 1000 |
| COc1cccc(-c2ccc3c(=O)n(-c4ncccc4F)ncc3c2)c1 [1-29] | 100 to 1000 |
| CCn1ncc2cc(-c3c(C)cc(C)cc3C)ccc2c1=O [1-2] | 100 to 1000 |
| Cc1ccc(-c2ccc3c(=O)n(-c4ccc(C(C)O)cc4)ncc3c2)c(C)c1 (stereo not shown) [1-14, 6-(2,4-Dimethylphenyl)-2-(4-(1-hydroxyethyl)phenyl)phthalazin-1(2H)-one] | 100 to 1000 |
| COc1cccc(-c2ccc3c(=O)n(-c4ncc(N5CCCCC5)cn4)ncc3c2)c1C [1-71] | 100 to 1000 |
| O=c1c2ccc(-c3ccc(F)c(N4CCC4)c3)cc2cnn1-c1ccccn1 [1-51] | 1000 to 10000 |
| COc1ccccc1-n1ncc2cc(-c3cccc(N4CCC4)c3)ccc2c1=O [1-19] | 100 to 1000 |
| Cc1ccc(-c2ccc3c(=O)n(-c4ccccc4F)ncc3c2)c(C)c1 [1-4, 6-(2,4-Dimethylphenyl)-2-(2-fluorophenyl)phthalazin-1(2H)-one] | 100 to 1000 |
| O=c1c2ccc(-c3cccc4c3ccn4C3CC3)cc2cnn1-c1ccccn1 [1-47] | 1000 to 10000 |
| COc1cccc(-c2ccc3c(=O)n(-c4ncc(NCCN5CCCC5)cn4)ncc3c2)c1C [1-95] | 100 to 1000 |
| O=c1c2ccc(-c3cc(F)cc(N4CCC4)c3)cc2cnn1-c1ccccn1 [1-49] | 100 to 1000 |
| Cc1c(OC2CC2)cccc1-c1ccc2c(=O)n(-c3ncccn3)ncc2c1 [1-43] | 100 to 1000 |
| CCn1ncc2cc(-c3cccc(OC)c3)ccc2c1=O [1-3] | 100 to 1000 |
| COc1ccc(-c2ccc3c(=O)n(-c4ccccn4)ncc3c2)cc1 [1-17] | 100 to 1000 |
| CCn1ncc2cc(-c3cccc(N4CCCC4)c3)ccc2c1=O [1-13, 2-Ethyl-6-(3-(pyrrolidin-1-yl)phenyl)phthalazin-1(2H)-one] | 1000 to 10000 |
| COc1cccc(-c2ccc3c(=O)n(-c4cccc(C)n4)ncc3c2)c1 [1-32] | 100 to 1000 |
| COc1cccc(-c2ccc3c(=O)n(-c4ncc(N5CCCC5)cn4)ncc3c2)c1C [1-70] | 100 to 1000 |
| Cc1ccc(-c2ccc3c(=O)n(-c4ncc(N5CCOCC5)cn4)ncc3c2)c(C)c1 [1-81] | 100 to 1000 |
| COc1cccc(-c2ccc3c(=O)n(CCN4CCOCC4)ncc3c2)c1C [1-66] | 100 to 1000 |

| Compound | IC50 [nM] |
| --- | --- |
| COc1cccc(-c2ccc3c(=O)n(-c4ncc(NC(C)(C)CN(C)C)cn4)ncc3c2)c1C [1-104] | 100 to 1000 |
| COc1cccc(-c2ccc3c(=O)n(-c4ncc(NCC(C)(C)OC)cn4)ncc3c2)c1C [1-110, 6-(3-Methoxy-2-methylphenyl)-2-(5-((2-methoxy-2-methylpropyl)amino)pyrimidin-2-yl)phthalazin-1(2H)-one] | 100 to 1000 |
| COc1cccc(-c2ccc3c(=O)n(-c4ncc(N5CC6(COC6)C5)cn4)ncc3c2)c1C [1-84, 2-(5-(2-Oxa-6-azaspiro[3.3]heptan-6-yl)pyrimidin-2-yl)-6-(3-methoxy-2-methylphenyl)phthalazin-1(2H)-one] | 100 to 1000 |
| COc1cccc(-c2ccc3c(=O)n(-c4ncc(N5CCCC(N(C)C)C5)cn4)ncc3c2)c1C (stereo not shown) [1-103] | 100 to 1000 |
| COc1cccc(-c2ccc3c(=O)n(-c4ncc(OC5CNC5)cn4)ncc3c2)c1C [1-69] | 100 to 1000 |
| COc1cccc(-c2ccc3c(=O)n(C4CCOCC4)ncc3c2)c1C [1-60] | 100 to 1000 |
| COc1cccc(-c2ccc3c(=O)n(-c4ccc(S(C)(=O)=O)cn4)ncc3c2)c1C [1-68] | 100 to 1000 |
| O=c1c2ccc(-c3cccc(N4CCC4)c3)cc2cnn1-c1ncc(N2CCC(O)C2)cn1 (stereo not shown) [1-83] | 100 to 1000 |
| COc1cccc(-c2ccc3c(=O)n(-c4ccc(SC)cn4)ncc3c2)c1C [1-67] | 100 to 1000 |
| O=c1c2ccc(-c3cccc4c3ccn4C3CC3)cc2cnn1-c1ncccn1 [1-48] | 100 to 1000 |
| O=c1c2ccc(-c3cccc(OC4CC4)c3Cl)cc2cnn1-c1ccccn1 [1-34] | < 100 |
| O=c1c2ccc(-c3cccc(OC4CC4)c3Cl)cc2cnn1-c1ncccn1 [1-41] | 100 to 1000 |
| COc1cccc(-c2ccc3c(=O)n(-c4ncccn4)ncc3c2)c1 [1-31] | 100 to 1000 |
| CN1CCc2c(-c3ccc4c(=O)n(-c5ccccn5)ncc4c3)cccc21 [1-37] | < 100 |
| COc1cccc(-c2ccc3c(=O)n(-c4ccccn4)ncc3c2)c1Cl [1-33] | < 100 |
| O=c1c2ccc(-c3cccc(N4CCC4)c3)cc2cnn1-c1ccc(F)cn1 [1-24, 6-(3-(Azetidin-1-yl)phenyl)-2-(5-fluoropyridin-2-yl)phthalazin-1(2H)-one] | 100 to 1000 |
| CC(F)(F)c1cccc(-c2ccc3c(=O)n(-c4ccccn4)ncc3c2)c1 [1-39] | 100 to 1000 |
| COc1cccc(-c2ccc3c(=O)n(-c4ncc(N5CCOCC5)cn4)ncc3c2)c1C [1-64] | < 100 |
| COc1cccc(-c2ccc3c(=O)n(-c4ncc(NCCn5ccnc5)cn4)ncc3c2)c1C [1-97] | < 100 |

Results, then the compound that gave them:

| IC50 [nM] | Compound |
| --- | --- |
| < 100 | COc1cccc(-c2ccc3c(=O)n(-c4ccccn4)ncc3c2)c1C [1-35] |
| < 100 | COc1cccc(-c2ccc3c(=O)n(-c4ccc(S(C)(=N)=O)cn4)ncc3c2)c1C (stereo not shown) [1-91] |
| < 100 | COc1cccc(-c2ccc3c(=O)n(-c4ncccn4)ncc3c2)c1Cl [1-40] |
| < 100 | COc1cnc(-n2ncc3cc(-c4cccc5c4CCN5C)ccc3c2=O)nc1 [1-57] |
| < 100 | COc1cnc(-n2ncc3cc(-c4cccc(OC)c4C)ccc3c2=O)nc1 [1-55] |
| < 100 | COc1cccc(-c2ccc3c(=O)n(-c4ccc(C(=O)NCC(C)(C)O)cn4)ncc3c2)c1C [1-92] |
| < 100 | COc1cccc(-c2ccc3c(=O)n(-c4ncc(NCCN(C)C)cn4)ncc3c2)c1C [1-80] |
| < 100 | CN1CCCc2c(-c3ccc4c(=O)n(-c5ncccn5)ncc4c3)cccc21 [1-108] |
| < 100 | COc1cccc(-c2ccc3c(=O)n(-c4ncc(NC5CCC(O)CC5)cn4)ncc3c2)c1C (stereo not shown) [1-74] |
| < 100 | COc1cccc(-c2ccc3c(=O)n(-c4ccc(NC(=O)[C@@H](N)CO)cn4)ncc3c2)c1C [1-102] |
| < 100 | COc1cccc(-c2ccc3c(=O)n(-c4ncc(NC(C)(C)CO)cn4)ncc3c2)c1C [1-100] |
| < 100 | COCC(C)(C)Nc1cnc(-n2ncc3cc(-c4cccc(OC)c4C)ccc3c2=O)nc1 [1-109] |
| < 100 | COc1cccc(-c2ccc3c(=O)n(-c4ncccn4)ncc3c2)c1C [1-42] |
| < 100 | COc1cccc(-c2ccc3c(=O)n(-c4ncc(NC5CCN(C)C5)cn4)ncc3c2)c1C (stereo not shown) [1-107] |
| < 100 | Cc1c(-c2ccc3c(=O)n(-c4ccccn4)ncc3c2)cccc1N1CCC1 [1-77] |
| < 100 | Cc1cnc(-n2ncc3cc(-c4cccc5c4CCN5C)ccc3c2=O)nc1 [1-56] |
| < 100 | CCOc1cnc(-n2ncc3cc(-c4cccc(OC)c4C)ccc3c2=O)nc1 [1-85] |
| < 100 | COc1cccc(-c2ccc3c(=O)n(-c4ncc(NCCn5cncn5)cn4)ncc3c2)c1C [1-106] |
| < 100 | Cc1ccc(-c2ccc3c(=O)n(-c4ncc(N5CCC(O)C5)cn4)ncc3c2)c(C)c1 (stereo not shown) [1-82] |
| < 100 | COc1cccc(-c2ccc3c(=O)n(-c4ncc(C)cn4)ncc3c2)c1C [1-54] |
| < 100 | COc1cccc(-c2ccc3c(=O)n(-c4ccc(C(=O)N5CCC(O)C5)cn4)ncc3c2)c1C (stereo not shown) [1-93] |
| < 100 | COc1cccc(-c2ccc3c(=O)n(-c4ncccn4)ncc3c2)c1F [1-111] |
| < 100 | O=c1c2ccc(-c3cccc(N4CCC4)c3)cc2cnn1-c1ncccn1 [1-46] |
| < 100 | COc1cccc(-c2ccc3c(=O)n(-c4ncc(F)cn4)ncc3c2)c1C [1-62] |
| < 100 | COc1cccc(-c2ccc3c(=O)n(-c4ncc(NC5CCCC(O)C5)cn4)ncc3c2)c1C (stereo not shown) [1-75] |
| < 100 | COc1cccc(-c2ccc3c(=O)n(-c4ncc(NC5CCC(O)C5)cn4)ncc3c2)c1C (stereo not shown) [1-87] |
| < 100 | COc1cccc(-c2ccc3c(=O)n(-c4ncc(N5CCC(O)CC5)cn4)ncc3c2)c1C [1-72] |
| < 100 | CN1CCCc2c(-c3ccc4c(=O)n(-c5ccccn5)ncc4c3)cccc21 [1-61] |
| < 100 | COc1cccc(-c2ccc3c(=O)n(-c4ccc(C(=O)NC5CCC(O)C5)cn4)ncc3c2)c1C (stereo not shown) [1-94] |
